Values of other authors, collected in patent US10610707B2, “Oral care product for sensitive enamel care” (Colgate-Palmolive Company, priority 2010, dated 2020).

Conditions: pH below which the compound dissolves, consuming acid

## O=C([O-])[O-].[Ca+2] [calcium carbonate]
  pH: approximately 8.75

## [O]=[Zn] [ZnO, Zinc oxide]
  pH: approximately 6.95
